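Method: 48-hour compound exposure of cells in 96-well plates, five concentrations, linear interpolation of endpoints. TGI: total growth inhibition.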
How the values were obtained:
Test in all cases: NCI tumour cell line growth inhibition, 48 h
786-0 renal = tested on: 786-0 renal
UACC-257 melanoma = tested on: UACC-257 melanoma
DMS 273 small cell lung = tested on: DMS 273 small cell lung
SK-MEL-2 melanoma = tested on: SK-MEL-2 melanoma
M19-MEL melanoma = tested on: M19-MEL melanoma
A549 NSCLC = tested on: A549 NSCLC
MALME-3M melanoma = tested on: MALME-3M melanoma
KM12 colon = tested on: KM12 colon
COLO 205 colon = tested on: COLO 205 colon
NCI-H460 lung = tested on: NCI-H460 lung
HOP-92 NSCLC = tested on: HOP-92 NSCLC
U251 CNS = tested on: U251 CNS
SF-539 CNS = tested on: SF-539 CNS
HL-60(TB) leukemia = tested on: HL-60(TB) leukemia
SF-295 CNS = tested on: SF-295 CNS
LXFL 529 NSCLC = tested on: LXFL 529 NSCLC
CCRF-CEM leukemia = tested on: CCRF-CEM leukemia
UO-31 renal = tested on: UO-31 renal
SK-MEL-28 melanoma = tested on: SK-MEL-28 melanoma
OVCAR-4 ovarian = tested on: OVCAR-4 ovarian
RPMI-8226 leukemia = tested on: RPMI-8226 leukemia
HCT-15 colon = tested on: HCT-15 colon
HT29 colon = tested on: HT29 colon
SK-OV-3 ovarian = tested on: SK-OV-3 ovarian
SNB-75 CNS = tested on: SNB-75 CNS
DLD-1 colon = tested on: DLD-1 colon
NCI-H226 lung = tested on: NCI-H226 lung
A498 renal = tested on: A498 renal
SF-268 CNS = tested on: SF-268 CNS
HCT-116 colon = tested on: HCT-116 colon
OVCAR-8 ovarian = tested on: OVCAR-8 ovarian
SR leukemia = tested on: SR leukemia
DMS 114 small cell lung = tested on: DMS 114 small cell lung
IGROV1 ovarian = tested on: IGROV1 ovarian
K-562 leukemia = tested on: K-562 leukemia
SN12C renal = tested on: SN12C renal
MOLT-4 leukemia = tested on: MOLT-4 leukemia
NCI-H522 lung = tested on: NCI-H522 lung
KM20L2 colon = tested on: KM20L2 colon
UACC-62 melanoma = tested on: UACC-62 melanoma
M14 melanoma = tested on: M14 melanoma
SW-620 colon = tested on: SW-620 colon
OVCAR-3 ovarian = tested on: OVCAR-3 ovarian
EKVX NSCLC = tested on: EKVX NSCLC
ACHN renal = tested on: ACHN renal
XF 498 CNS = tested on: XF 498 CNS
SNB-19 CNS = tested on: SNB-19 CNS
HOP-18 NSCLC = tested on: HOP-18 NSCLC
NCI-H23 lung = tested on: NCI-H23 lung
TK-10 renal = tested on: TK-10 renal
CAKI-1 renal = tested on: CAKI-1 renal
SK-MEL-5 melanoma = tested on: SK-MEL-5 melanoma
HOP-62 NSCLC = tested on: HOP-62 NSCLC
LOX IMVI melanoma = tested on: LOX IMVI melanoma
HCC-2998 colon = tested on: HCC-2998 colon
RXF 393 renal = tested on: RXF 393 renal
SNB-78 CNS = tested on: SNB-78 CNS
OVCAR-5 ovarian = tested on: OVCAR-5 ovarian

Measured: TGI

CC1=C(c2cc(C(=O)Nc3cccc(C(F)(F)F)c3)ncn2)Sc2ccccc2N1
not listed: LOX IMVI melanoma | HCC-2998 colon | RXF 393 renal | SNB-78 CNS | OVCAR-5 ovarian
> 100 µM: all other assays above

CN(C)c1ccc(/C=N\N2C(=O)c3ccccc3C2=O)cc1
not listed: COLO 205 colon | U251 CNS | SK-OV-3 ovarian | NCI-H522 lung
> 100 µM: all other assays above

— PubChem BioAssay (NCI)
